Data: patent publication US7396847B2, “Oxazolidinone and/or isoxazoline as antibacterial agents” (AstraZeneca AB, priority 2001, dated 2008)
≈ marks a conversion by molar mass, not a printed value.

Key:
Haemophilus influenzae = assay: MIC, fastidious Gram negative organisms in Mueller-Hinton broth; format: cell-based; settings: Mueller-Hinton broth with hemin and NAD, aerobic, 24 hours, 37° C., 5×10^4 CFU/well
Method: (§1) The following results were obtained on a standard in-vitro test system. The activity is described in terms of the minimum inhibitory concentration (MIC) determined by the agar-dilution technique with an inoculum size of 10^4 CFU/spot. Typically, compounds are active in the range 0.01 to 256 μg/ml.
(§2) Streptococci and enterococci were tested on agar supplemented with 5% defibrinated horse blood, an inoculum of 10^4 CFU/spot and an incubation temperature of 37° C. in an atmosphere of 5% carbon dioxide for 48 hours—blood is required for the growth of some of the test organisms. Fastidious Gram negative organisms were tested in Mueller-Hinton broth, supplemented with hemin and NAD, grown aerobically for 24 hours at 37° C., and with an innoculum of 5×10^4 CFU/well.

Moraxella catarrhalis = assay: as above; format: cell-based; settings: Mueller-Hinton broth with hemin and NAD, aerobic, 24 hours, 37° C., 5×10^4 CFU/well
Method: as §1, §2

[1] = test system: Staphylococcus aureus MRQR (methicillin resistant and quinolone resistant); assay: MIC, agar-dilution, Staphylococci; format: cell-based; settings: inoculum 10^4 CFU/spot, 37° C., 24 hours
Method: as §1
(§3) Staphylococci were tested on agar, using an inoculum of 10^4 CFU/spot and an incubation temperature of 37° C. for 24 hours—standard test conditions for the expression of methicillin resistance.

[2] = test system: Staphylococcus aureus MSQS (methicillin sensitive and quinolone sensitive); assay: MIC, agar-dilution, Staphylococci; format: cell-based; settings: inoculum 10^4 CFU/spot, 37° C., 24 hours
Method: as §1, §3

Streptococcus pyogenes = assay: MIC, agar-dilution on agar with 5% defibrinated horse blood, Streptococci; format: cell-based; settings: 10^4 CFU/spot, 37° C., 5% carbon dioxide, 48 hours
Method: as §1, §2

Streptococcus pneumoniae = assay: as above; format: cell-based; settings: 10^4 CFU/spot, 37° C., 5% carbon dioxide, 48 hours
Method: as §1, §2

melting point [°C] | MIC (Haemophilus influenzae) [µg/mL] | MIC (Moraxella catarrhalis) [µg/mL] | MIC [1] [µg/mL] | MIC [2] [µg/mL] | MIC (Streptococcus pyogenes) [µg/mL] | MIC (Streptococcus pneumoniae) [µg/mL] | SMILES
257 to 260 |  |  |  |  |  |  | CC(=O)NC[C@H]1CN(c2ccc(-c3ccc(N4C[C@H](CNC(C)=O)OC4=O)s3)s2)C(=O)O1 [Example 62, N-{[(5S)-3-(5′-{5-[(Acetylamino)methyl]-2-oxo-1,3-oxazolidin-3-yl}-2,2′-bithien-5-yl)-2-oxo-1,3-oxazolidin-5-yl]methyl}acetamide]
 | 2 (≈ 3.98 µM) | 0.5 (≈ 0.995 µM) | 0.5 (≈ 0.995 µM) | 0.25 (≈ 0.498 µM) | 0.13 (≈ 0.259 µM) | 0.06 (≈ 0.119 µM) | CC(=O)NC[C@H]1CN(c2ccc(-c3ccc(N4C[C@H](CNC(C)=O)OC4=O)cc3F)c(F)c2)C(=O)O1 [Example 1, (5S,5′S)-N-(3-{4′-[5-(Acetylamino-methyl)-2-oxo-oxazolidin-3-yl]-2,2′-difluoro-biphenyl-4-yl}-2-oxo-oxazolidin-5-ylmethyl)-acetamide]
